Experimental data taken from patent publication US9822114B2, “Tricyclic oxazolidinone antibiotic compounds” (Idorsia Pharmaceuticals Ltd, priority 2008, dated 2017).
In brackets after ≈: the same amount, converted by molar mass.

System: M. catarrhalis A894
Assay: Minimal inhibitory concentration (MIC), microdilution method in cation-adjusted Mueller-Hinton Broth (CLSI M7-A7)
Type: cell-based
Settings: strain A894; for MIC: Moraxella catarrhalis
Description: Minimal inhibitory concentrations (MICs; mg/1) were determined in cation-adjusted Mueller-Hinton Broth by a microdilution method following the description given in “Methods for Dilution Antimicrobial Susceptibility Tests for Bacteria that Grow Aerobically”, Approved standard, 7th ed., Clinical and Laboratory Standards Institute (CLSI) Document M7-A7, Wayne, Pa., USA, 2006.

## O=C1COc2ccc(N3C[C@H](CCNCC4Cn5c(=O)ccc6cccc4c65)OC3=O)cc2N1 (mixture of isomers) [Example 62, (RS)-1-({2-[(S)-2-oxo-3-(3-oxo-3,4-dihydro-2H-benzo[1,4]oxazin-6-yl)-oxazolidin-5-yl]-ethylamino}-methyl)-1,2-dihydro-pyrrolo[3,2,1-U]quinolin-4-one]
  MIC for M. catarrhalis A894: ≦0.031 mg/l

## O=C1COc2ccc(N3C[C@@H](CNCC4Cn5c(=O)ccc6ccc(F)c4c65)OC3=O)cc2N1 (mixture of isomers) [Example 32, (1RS)-9-fluoro-1-({[(R)-2-oxo-3-(3-oxo-3,4-dihydro-2H-benzo[1,4]oxazin-6-yl)-oxazolidin-5-ylmethyl]-amino}-methyl)-1,2-dihydro-pyrrolo[3,2,1-ij]quinolin-4-one]
  MIC: 0.031 µg/mL

## (1R,2S)-2-methyl-1-{3-[(R)-2-oxo-3-(3-oxo-3,4-dihydro-2H-benzo[1,4]thiazin-6-yl)-oxazolidin-5-yl]-propylamino}-1,2-dihydro-pyrrolo[3,2,1-ij]quinolin-4-one and (1S,2R)-2-methyl-1-{3-[(R)-2-oxo-3-(3-oxo-3,4-dihydro-2H-benzo[1,4]thiazin-6-yl)-oxazolidin-5-yl]-propylamino}-1,2-dihydro-pyrrolo[3,2,1-ij]quinolin-4-one [Example 166]
  MIC for M. catarrhalis A894: ≦0.031 mg/l

## O=C1CSc2ccc(N3C[C@H](CCNC[C@]4(O)Cn5c(=O)ccc6nccc4c65)OC3=O)cc2N1 [Example 173, (S)-4-hydroxy-4-({2-[(S)-2-oxo-3-(3-oxo-3,4-dihydro-2H-benzo[1,4]thiazin-6-yl)-oxazolidin-5-yl]-ethylamino}-methyl)-4,5-dihydro-pyrrolo[3,2,1-de][1,5]naphthyridin-7-one]
  MIC: 0.125 µg/mL (≈ 0.253 µM)

## O=C1COc2ccc(N3C[C@@H](CCCN[C@H]4Cn5c(=O)ccc6nccc4c65)OC3=O)cc2N1 [Example 19, (4R)-4-{3-[(R)-2-oxo-3-(3-oxo-3,4-dihydro-2H-benzo[1,4]oxazin-6-yl)-oxazolidin-5-yl]-propylamino}-4,5-dihydro-pyrrolo[3,2,1-de][1,5]naphthyridin-7-one]
  MIC: ≤ 0.031 µg/mL

## O=C1COc2ccc(N3C[C@@H](CCCN[C@H]4Cn5c(=O)cnc6cccc4c65)OC3=O)nc2N1 [Example 75, (R)-6-{3-[(R)-2-oxo-3-(3-oxo-3,4-dihydro-2H-pyrido[3,2-b][1,4]oxazin-6-yl)-oxazolidin-5-yl]-propylamino}-5,6-dihydro-pyrrolo[1,2,3-de]quinoxalin-3-one]
  MIC: ≤ 0.031 µg/mL

## O=C1CSc2ccc(N3C[C@@H](CN(CCCO)CCC4Cn5c(=O)ccc6ccc(F)c4c65)OC3=O)cc2N1 (mixture of isomers) [Example 68, (RS)-9-fluoro-1-(2-{(3-hydroxy-propyl)-[(R)-2-oxo-3-(3-oxo-3,4-dihydro-2H-benzo[1,4]thiazin-6-yl)-oxazolidin-5-ylmethyl]-amino}-ethyl)-1,2-dihydro-pyrrolo[3,2,1-ij]quinolin-4-one]
  MIC: ≤ 0.031 µg/mL

## O=C1CSc2ccc(N3C[C@@H](CCNCC4CN5C(=O)CCc6ccc(F)c4c65)OC3=O)cc2N1 (mixture of isomers) [Example 23, (1RS)-9-fluoro-1-({2-[(R)-2-oxo-3-(3-oxo-3,4-dihydro-2H-benzo[1,4]thiazin-6-yl)-oxazolidin-5-yl]-ethylamino}-methyl)-1,2,5,6-tetrahydro-pyrrolo[3,2,1-ij]quinolin-4-one]
  MIC: ≤ 0.031 µg/mL

## O=C1CSc2ccc(N3C[C@H](CCCNC4Cn5c(=O)ccc6ccc(F)c4c65)OC3=O)nc2N1 (mixture of isomers) [Example 126, (RS)-9-fluoro-1-{3-[(S)-2-oxo-3-(3-oxo-3,4-dihydro-2H-pyrido[3,2-b][1,4]thiazin-6-yl)-oxazolidin-5-yl]-propylamino}-1,2-dihydro-pyrrolo[3,2,1-ij]quinolin-4-one]
  MIC: ≤ 0.031 µg/mL

## O=C1CSc2ccc(N3C[C@@H](CCN[C@@H]4Cn5c(=O)cnc6cccc4c65)OC3=O)cc2N1 [Example 54, (S)-6-{2-[(R)-2-oxo-3-(3-oxo-3,4-dihydro-2H-benzo[1,4]thiazin-6-yl)-oxazolidin-5-yl]-ethylamino}-5,6-dihydro-pyrrolo[1,2,3-de]quinoxalin-3-one]
  MIC: 0.25 µg/mL (≈ 0.539 µM)

## O=C1CSc2ccc(N3C[C@@H](CNCC4Cn5c(=O)ccc6ccc(F)c4c65)OC3=O)cc2N1 (mixture of isomers) [Example 5, (1RS)-9-fluoro-1-({[(R)-2-oxo-3-(3-oxo-3,4-dihydro-2H-benzo[1,4]thiazin-6-yl)-oxazolidin-5-ylmethyl]-amino}-methyl)-1,2-dihydro-pyrrolo[3,2,1-ij]quinolin-4-one]
  MIC: ≤ 0.031 µg/mL
